Results reported in patent US5468754A, “11,7 substituted camptothecin derivatives and formulations of 11,7 substituted camptothecin derivatives and methods for uses thereof” (priority 1994, dated 1995).
Where two headings read alike, the source gives them in different places.

Key:
[1] = cited from earlier work
Solubility in DMA or DMI = type: physicochemical; conditions: organic solvent or mixture, in presence of pharmaceutically acceptable acid
Method: Yet another embodiment of this invention for oral administration to a patient with cancer is 11,7-HECPT or 11,7-HMCPT dissolved in dimethylisosorbide (DMI) or dimethylacetamide (DMA) in the presence of a pharmaceutically acceptable acid. More specifically, approximately 10 mg of 11,7-HECPT or 11,7-HMCPT can be dissolved in each milliliter of DMA. However, only approximately 5.0 mg of 11,7-HECPT or 11,7-HMCPT can be dissolved in each milliliter of DMI.

topoisomerase I = conditions: cited from earlier work
[2] = cited from earlier work; remark: listed apart in the source
[3] = tested on: Topoisomerase I, purified from human colon carcinoma cells; conditions: cited from earlier work
[4] = cited from earlier work; remark: listed apart in the source
L1210 cells = conditions: cited from earlier work
[5] = tested on: Topoisomerase I, purified from calf thymus; conditions: cited from earlier work
[6] = more toxic than sodium camptothecin, mice; cited from earlier work
P388 tumor = conditions: intermittent bolus (days 1, 5, and 9), intraperitoneal; mice; cited from earlier work
MOLT3 cells = conditions: more potent than CPT-11; cited from earlier work
[7] = above 30 mg/m^2/d CPT-11, 5 day continuous infusion; cited from earlier work
[8] = in vivo; cited from earlier work
[9] = tested on: topoisomerase I enzyme of P388 cells; conditions: greater than CPT-11; cited from earlier work
[10] = Kaneda et al.; cited from earlier work
[11] = compared with parent compound camptothecin; cited from earlier work
[12] = similar form; vs intravenous administration (U.S. Pat. No. 4,713,246); cited from earlier work
[13] = dimethylacetamide, read-out: solubility in DMA
[14] = dimethylisosorbide, read-out: solubility in DMI

## CC[C@@]1(O)C(=O)OCc2c1cc1n(c2=O)Cc2cc3ccc(O)cc3nc2-1 [11-HCPT, 11-hydroxy camptothecin]
[1]; previously demonstrated
  antitumor activity: previously demonstrated antitumor activity

## CCc1c2c(nc3cc(O)ccc13)-c1cc3c(c(=O)n1C2)COC(=O)[C@]3(O)CC [11,7-HECPT, 11-hydroxy-7-ethyl camptothecin]
[1]; previously demonstrated
  antitumor activity: previously demonstrated antitumor activity
Solubility in DMA or DMI; [13]
  solubility: ~10000 µg/mL
Solubility in DMA or DMI; [14]
  solubility: ~5000 µg/mL

## CC[C@@]1(O)C(=O)OCc2c1cc1n(c2=O)Cc2cc3ccccc3nc2-1 [Camptothecin, camptothecin]
Topoisomerase I; closed lactone vs non-lactone form
  stabilization of the cleavable complex: only the closed lactone form of camptothecin helps stabilize the cleavable complex
[2]; camptothecin, Phase I trials, early 1970's
  Toxicity: unpredictable myelosuppression and hemorrhagic cystitis
[2]; camptothecin, Phase I trials
  antitumor activity: some antitumor activity
[3]
  inhibition of Topoisomerase I: inhibited
[4]
  water solubility: highly water insoluble
L1210 cells
  DNA strand breaks in L1210 cells: an increase in unexplained protein-free breaks
[5]
  inhibition of Topoisomerase I: inhibited
[6]
  toxicity of lactone form relative to sodium camptothecin: 10 -fold

## CC[C@@]1(O)C(=O)OCc2c1cc1n(c2=O)Cc2c-1nc1cc(O)ccc1c2OC [11,7-HMCPT, 11-hydroxy-7-methoxy camptothecin]
[1]; previously demonstrated
  antitumor activity: previously demonstrated antitumor activity
Solubility in DMA or DMI; [13]
  solubility: ~10000 µg/mL
Solubility in DMA or DMI; [14]
  solubility: ~5000 µg/mL
[4]
  water solubility: poor water solubility

## CC[C@@]1(O)C(=O)OCc2c1cc1n(c2=O)Cc2cc3cc4c(cc3nc2-1)OCO4 [10,11-methylene dioxycamptothecin]
[1]; preclinical studies
  activity in preclinical studies: very active in preclinical studies
[4]
  water solubility: relatively insoluble in water

## CCc1c2c(nc3ccc(O)cc13)-c1cc3c(c(=O)n1C2)COC(=O)[C@]3(O)CC [SN38, 10-hydroxy-7-ethyl camptothecin]
P388 tumor
  anti-tumor activity compared to CPT-11 in vivo: little anti-tumor activity compared to CPT-11
MOLT3 cells
  potency in generating single-strand DNA breaks relative to CPT-11: approximately 1000 -fold
[7]
  CpMax of SN38 on increasing CPT-11 dose: decrease in the CpMax of SN38
[8]
  overall fractional concentration of the lactone species: fairly constant through a range of doses
[3]
  inhibition of Topoisomerase I: inhibited
[9]
  inhibitory activity against topoisomerase I relative to CPT-11: 3600 -fold
[4]
  water solubility: poorly soluble in water
[5]
  inhibition of Topoisomerase I: inhibited
[10]
  plasma concentration of SN38 in mice: maintained longer after CPT-11 administration than after treatment with SN38

## CC[C@@]1(O)C(=O)OCc2c1cc1n(c2=O)Cc2cc3c(CN(C)C)c(O)ccc3nc2-1 [topotecan]
Topoisomerase I
  Topo I inhibition: Topo I inhibitor
[1]; compared with parent compound camptothecin
  antitumor activity: retain the significant antitumor activity of the parent compound
[11]
  Toxicity: less sporadic toxicities

## CC[C@@](O)(C(=O)O)c1cc2n(c(=O)c1CO)Cc1cc3ccccc3nc1-2 [sodium camptothecin]
[2]; sodium camptothecin, Phase II studies
  Toxicity: unpredictable and severe myelosuppression, gastrointestinal toxicity, hemorrhagic cystitis, and alopecia
[2]; sodium camptothecin, clinical trials
  antitumor activity: lack of significant anti-tumor activity

## COc1cc([C@@H]2c3cc4c(cc3[C@@H](O[C@@H]3O[C@@H]5CO[C@@H](C)O[C@H]5[C@H](O)[C@H]3O)[C@H]3COC(=O)[C@H]23)OCO4)cc(OC)c1O [etoposide]
[12]
  bioavailability following oral administration: substantially equivalent to that achieved by intravenous administration
